Assay results reported in patent publication US8471005B2 (Cephalon, Inc., priority 2008, dated 2013).
Like-named read-outs stand apart in the source and are kept apart here.

What was measured:
ALK = biological target: T1, ALK (Homo sapiens, UniProt Q9UM73); test: ALK Kinase Assay (ELISA/TRF, PLC-γ substrate); assay type: biochemical; details: read-out: ALK Potency
T1 construct: host or cells: baculovirus expression system
Protocol: Briefly, each 96-well plate was coated with […] of 10 μg/mL substrate (phospholipase C-γ) in Tris-buffered saline (TBS). […] The reaction was initiated by adding enzyme (30 ng/ml ALK) and was allowed to proceed at 37° C. for 15 minutes. Detection of the phosphorylated product was performed by adding 100 μl/well of Eu—N1 labeled PT66 antibody (Perkin Elmer # AD0041).
Data analysis was performed using ActivityBase (IDBS, Guilford, UK). IC50 values were calculated by plotting percent inhibition versus log10 of the concentration of compound and fitting to the nonlinear regression sigmoidal dose-response (variable slope) equation in XLFit (IDBS, Guilford, UK).

JAK2 = biological target: T2, JAK2 (Homo sapiens, UniProt O60674); test: Recombinant Human JAK2 Kinase Assay (TRF); assay type: biochemical; details: read-out: JAK2 Potency
T2 construct: host or cells: baculovirus expression system
T2 sequence (O60674 whole entry): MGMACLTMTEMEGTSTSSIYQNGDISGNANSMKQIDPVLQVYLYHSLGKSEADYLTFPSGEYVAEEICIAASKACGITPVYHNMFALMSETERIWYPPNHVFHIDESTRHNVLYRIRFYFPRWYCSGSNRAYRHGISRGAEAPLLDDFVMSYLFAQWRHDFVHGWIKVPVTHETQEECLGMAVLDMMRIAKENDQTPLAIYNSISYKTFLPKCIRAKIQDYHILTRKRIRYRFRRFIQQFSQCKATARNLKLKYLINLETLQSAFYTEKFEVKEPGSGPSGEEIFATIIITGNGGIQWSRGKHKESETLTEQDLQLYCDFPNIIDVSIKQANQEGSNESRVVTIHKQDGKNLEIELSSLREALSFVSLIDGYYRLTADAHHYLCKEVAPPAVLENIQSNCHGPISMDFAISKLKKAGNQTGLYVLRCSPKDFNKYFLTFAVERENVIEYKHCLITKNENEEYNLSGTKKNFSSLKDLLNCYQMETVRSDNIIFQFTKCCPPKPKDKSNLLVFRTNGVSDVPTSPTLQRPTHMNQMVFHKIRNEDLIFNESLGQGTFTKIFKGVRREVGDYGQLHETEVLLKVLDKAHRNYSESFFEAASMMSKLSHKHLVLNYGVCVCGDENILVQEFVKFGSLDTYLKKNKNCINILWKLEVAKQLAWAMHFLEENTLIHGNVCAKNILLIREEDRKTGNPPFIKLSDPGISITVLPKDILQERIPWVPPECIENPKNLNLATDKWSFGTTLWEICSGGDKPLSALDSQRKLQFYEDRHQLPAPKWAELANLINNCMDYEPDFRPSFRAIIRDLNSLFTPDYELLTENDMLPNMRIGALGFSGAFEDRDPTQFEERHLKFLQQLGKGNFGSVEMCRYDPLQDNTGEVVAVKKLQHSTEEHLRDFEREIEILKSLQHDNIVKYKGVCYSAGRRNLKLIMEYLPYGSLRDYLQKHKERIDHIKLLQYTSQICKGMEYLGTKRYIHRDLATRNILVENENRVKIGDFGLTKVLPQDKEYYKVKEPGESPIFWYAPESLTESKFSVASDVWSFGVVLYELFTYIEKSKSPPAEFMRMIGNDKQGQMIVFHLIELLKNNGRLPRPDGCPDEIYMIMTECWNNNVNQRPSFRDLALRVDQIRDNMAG
Protocol: Compounds were tested for their ability to inhibit the kinase activity of baculovirus-expressed JAK2 using the TRF detection system. […] The plates were coated first with 100 μL/well of 10 μg/mL Neutravidin (Pierce #31000, Rockford, Ill.) in TBS at 37° C. for 2 hours, followed by 100 μL/well of 1 μg/mL 15-mer peptide substrate (biotinyl-amino-hexanoyl-[…]-amide, Infinity Biotech Research and Resource, Aston, Pa.) at 37° C. for another hour. The JAK2 assay mixture (total volume=100 μL/well) consisting of 20 mM HEPES (pH 7.2), 0.2 μM ATP, 1 mM MnCl2, 0.1% BSA, and test compound (diluted in DMSO; 2.5% DMSO final in assay) was then added to the assay plate. Enzyme (15 ng/ml JAK2) was added and the reaction was allowed to proceed at room temperature for 20 minutes. Detection of the phosphorylated product was performed by adding 100 μL/well of Eu—N1 labeled PY100 antibody (PerkinElmer Life Sciences #AD0041, Boston, Mass.).

[1] = ALK kinase inhibition, 1 μM ATP
[2] = JAK2 kinase inhibition, 0.2 μM ATP

T1 sequence (Q9UM73 19-1620): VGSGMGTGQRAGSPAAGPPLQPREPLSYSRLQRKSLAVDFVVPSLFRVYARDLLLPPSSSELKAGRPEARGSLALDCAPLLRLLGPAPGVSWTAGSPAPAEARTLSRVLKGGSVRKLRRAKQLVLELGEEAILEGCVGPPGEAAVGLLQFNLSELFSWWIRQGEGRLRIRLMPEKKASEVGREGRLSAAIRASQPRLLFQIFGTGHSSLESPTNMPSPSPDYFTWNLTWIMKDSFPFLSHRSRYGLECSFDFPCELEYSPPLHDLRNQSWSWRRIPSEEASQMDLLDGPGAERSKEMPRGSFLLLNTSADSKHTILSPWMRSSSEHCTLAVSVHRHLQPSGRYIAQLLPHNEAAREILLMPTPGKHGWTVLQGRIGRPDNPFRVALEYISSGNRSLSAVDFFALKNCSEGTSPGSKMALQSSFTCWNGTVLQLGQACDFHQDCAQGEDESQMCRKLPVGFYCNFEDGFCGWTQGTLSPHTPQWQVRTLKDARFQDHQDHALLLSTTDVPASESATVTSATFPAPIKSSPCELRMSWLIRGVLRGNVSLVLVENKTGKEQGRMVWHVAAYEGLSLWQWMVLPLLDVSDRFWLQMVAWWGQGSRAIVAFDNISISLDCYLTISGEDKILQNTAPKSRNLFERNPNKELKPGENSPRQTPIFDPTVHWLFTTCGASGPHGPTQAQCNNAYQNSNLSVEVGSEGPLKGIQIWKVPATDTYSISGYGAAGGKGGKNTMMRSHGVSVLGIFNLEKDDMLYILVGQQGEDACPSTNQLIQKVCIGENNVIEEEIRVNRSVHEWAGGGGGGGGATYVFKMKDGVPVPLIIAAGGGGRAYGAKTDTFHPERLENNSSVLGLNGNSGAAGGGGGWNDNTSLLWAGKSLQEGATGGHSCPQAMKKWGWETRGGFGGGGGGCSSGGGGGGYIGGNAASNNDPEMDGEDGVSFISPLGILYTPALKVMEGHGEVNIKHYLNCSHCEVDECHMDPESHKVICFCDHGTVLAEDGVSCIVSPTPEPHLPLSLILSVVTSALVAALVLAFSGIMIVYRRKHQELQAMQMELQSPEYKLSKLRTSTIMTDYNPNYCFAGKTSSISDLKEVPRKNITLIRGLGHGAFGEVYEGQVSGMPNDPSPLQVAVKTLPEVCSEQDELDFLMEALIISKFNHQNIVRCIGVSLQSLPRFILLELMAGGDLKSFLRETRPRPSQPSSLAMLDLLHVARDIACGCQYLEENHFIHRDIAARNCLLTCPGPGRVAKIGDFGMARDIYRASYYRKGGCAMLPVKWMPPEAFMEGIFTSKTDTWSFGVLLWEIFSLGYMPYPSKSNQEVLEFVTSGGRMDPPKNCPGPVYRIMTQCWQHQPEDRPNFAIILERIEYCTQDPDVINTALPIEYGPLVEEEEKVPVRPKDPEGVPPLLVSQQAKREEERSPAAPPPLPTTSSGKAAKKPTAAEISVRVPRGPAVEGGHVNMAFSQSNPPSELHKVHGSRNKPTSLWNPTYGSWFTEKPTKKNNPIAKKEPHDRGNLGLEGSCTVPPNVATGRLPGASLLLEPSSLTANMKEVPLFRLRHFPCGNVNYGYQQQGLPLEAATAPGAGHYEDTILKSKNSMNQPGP

Molecule | IC50 (ALK; ALK Kinase Inhibition) | IC50 (JAK2; JAK2 Kinase Inhibition) | IC50 (ALK; [1]) | IC50 (JAK2; [2])
O=C(NCCCN1CCOCC1)c1ccc(-c2ccc3cnc(Nc4ccc(N5CCOCC5)cc4)nn23)cc1 [Example 57, 4-[2-(4-Morpholin-4-yl-phenylamino)-pyrrolo[2,1-f][1,2,4]triazin-7-yl]-N-(3-morpholin-4-yl-propyl)-benzamide] | 1000 to 10000 nM | < 100 nM | – | –
3-(2-{2-[3-(2-Methoxy-1-methyl-ethoxy)-phenylamino]-pyrrolo[2,1-f][1,2,4]triazin-7-yl}-pyrrol-1-yl)-propionitrile [Example 1295] | – | – | > 10000 nM | 100 to 1000 nM
c1cncc(-c2ccc3cnc(Nc4cnn(CCN5CCOCC5)c4)nn23)c1 [Example 1191, [1-(2-Morpholin-4-yl-ethyl)-1H-pyrazol-4-yl]-(7-pyridin-3-yl-pyrrolo[2,1-f][1,2,4]triazin-2-yl)-amine] | – | – | > 10000 nM | < 100 nM
COCCOc1ccccc1-c1ccc2cnc(Nc3ccc(C4CCN(CC(N)=O)CC4)cc3OC)nn12 [Example 1271, 2-[4-(3-Methoxy-4-{7-[2-(2-methoxy-ethoxy)-phenyl]-pyrrolo[2,1-f][1,2,4]triazin-2-ylamino}-phenyl)-piperidin-1-yl]-acetamide] | – | – | 100 to 1000 nM | 1000 to 10000 nM
COCCN1CCc2ccc(Nc3ncc4ccc(-c5ccccc5)n4n3)cc2CC1 [Example 9, [3-(2-Methoxy-ethyl)-2,3,4,5-tetrahydro-1H-benzo[d]azepin-7-yl]-(7-phenyl-pyrrolo[2,1-f][1,2,4]triazin-2-yl)-amine] | < 100 nM | < 100 nM | – | –
COc1cc(C2CCN(C)CC2)ccc1Nc1ncc2ccc(-c3cccc4c3OCC4)n2n1 [Example 705, [7-(2,3-Dihydro-benzofuran-7-yl)-pyrrolo[2,1-f][1,2,4]triazin-2-yl]-[2-methoxy-4-(1-methyl-piperidin-4-yl)-phenyl]-amine] | – | – | < 100 nM | 100 to 1000 nM
COc1cc2c(cc1Nc1ncc3ccc(-c4cccc(S(=O)(=O)NC(C)(C)C)c4)n3n1)CCN(C[C@H](C)O)CC2 [Example 701] | – | – | < 100 nM | 100 to 1000 nM
CC(C)(C)NS(=O)(=O)c1cccc(-c2ccc3cnc(Nc4ccc5cn(CCN6CCOCC6)nc5c4)nn23)c1 [Example 1344, N-tert-Butyl-3-{2-[2-(2-morpholin-4-yl-ethyl)-2H-indazol-6-ylamino]-pyrrolo[2,1-f][1,2,4]triazin-7-yl}-benzenesulfonamide] | – | – | 100 to 1000 nM | < 100 nM
CC(C)(C)NS(=O)(=O)c1cccc(-c2ccc3cnc(Nc4ccc5c(c4)NC(=O)C5)nn23)c1 [Example 652, N-tert-Butyl-3-[2-(2-oxo-2,3-dihydro-1H-indol-6-ylamino)-pyrrolo[2,1-f][1,2,4]triazin-7-yl]-benzenesulfonamide] | – | – | 1000 to 10000 nM | < 100 nM
CCN(CC)C(=O)c1ccccc1-c1ccc2cnc(Nc3ccc(N4CCOCC4)cc3)nn12 [Example 408, N,N-Diethyl-2-[2-(4-morpholin-4-yl-phenylamino)-pyrrolo[2,1-f][1,2,4]triazin-7-yl]-benzamide] | 100 to 1000 nM | < 100 nM | – | –
CN1CCN(c2cccc(Nc3ncc4ccc(NCc5cccnc5)n4n3)c2)CC1 [Example 1168, N-(2)-[3-(4-Methyl-piperazin-1-yl)-phenyl]-N(7)-pyridin-3-ylmethyl-pyrrolo[2,1-f][1,2,4]triazine-2,7-diamine] | – | – | 1000 to 10000 nM | < 100 nM
COc1ccc(-c2ccc3cnc(Nc4ccc5c(c4)NC(=O)C5(C)C)nn23)cn1 [Example 658, 6-[7-(6-Methoxy-pyridin-3-yl)-pyrrolo[2,1-f][1,2,4]triazin-2-ylamino]-3,3-dimethyl-1,3-dihydro-indol-2-one] | – | – | > 10000 nM | < 100 nM
COc1cc(C2CCN(C)CC2)ccc1Nc1ncc2ccc(-c3ccccc3OC)n2n1 [Example 762, [2-Methoxy-4-(1-methyl-piperidin-4-yl)-phenyl]-[7-(2-methoxy-phenyl)-pyrrolo[2,1-f][1,2,4]triazin-2-yl]-amine] | – | – | < 100 nM | < 100 nM
CC(C)(C)NS(=O)(=O)c1cccc(-c2ccc3cnc(Nc4ccc5cn[nH]c5c4)nn23)c1 [Example 1327, N-tert-Butyl-3-[2-(1H-indazol-6-ylamino)-pyrrolo[2,1-f][1,2,4]triazin-7-yl]-benzenesulfonamide] | – | – | 1000 to 10000 nM | < 100 nM
Cc1nc(-c2ccc3cnc(Nc4ccc(N5CCOCC5)cc4)nn23)cn1C [Example 1044, [7-(1,2-Dimethyl-1H-imidazol-4-yl)-pyrrolo[2,1-f][1,2,4]triazin-2-yl]-(4-morpholin-4-yl-phenyl)-amine] | – | – | 1000 to 10000 nM | < 100 nM
CC(C)(C)NS(=O)(=O)c1cccc(-c2ccc3cnc(Nc4ccc5scnc5c4)nn23)c1 [Example 575, 3-[2-(Benzothiazol-5-ylamino)-pyrrolo[2,1-f][1,2,4]triazin-7-yl]-N-tert-butyl-benzenesulfonamide] | – | – | 1000 to 10000 nM | < 100 nM
COc1cc(C2CCN(CC(N)=O)CC2)ccc1Nc1ncc2c(C)cc(-c3ccccc3OC)n2n1 [Example 1262, 2-(4-{3-Methoxy-4-[7-(2-methoxy-phenyl)-5-methyl-pyrrolo[2,1-f][1,2,4]triazin-2-ylamino]-phenyl}-piperidin-1-yl)-acetamide] | – | – | < 100 nM | 100 to 1000 nM
COc1cc(C2CCN(C[C@@H](C)O)CC2)ccc1Nc1ncc2ccc(-c3ccccc3N(C)S(C)(=O)=O)n2n1 [Example 788, N-[2-(2-{4-[1-((R)-2-Hydroxy-propyl)-piperidin-4-yl]-2-methoxy-phenylamino}-pyrrolo[2,1-f][1,2,4]triazin-7-yl)-phenyl]-N-methyl-methanesulfonamide] | – | – | < 100 nM | 100 to 1000 nM
COc1cc(C2CCN(CC(N)=O)CC2)ccc1Nc1ncc2ccc(-c3ccccc3OC)n2n1 [Example 814, 2-(4-{3-Methoxy-4-[7-(2-methoxy-phenyl)-pyrrolo[2,1-f][1,2,4]triazin-2-ylamino]-phenyl}-piperidin-1-yl)-acetamide] | – | – | < 100 nM | 100 to 1000 nM
OCc1cccc(-c2ccc3cnc(Nc4cccc(N5CCOCC5)c4)nn23)c1 [Example 1561, {3-[2-(3-Morpholin-4-yl-phenylamino)-pyrrolo[2,1-f][1,2,4]triazin-7-yl]-phenyl}-methanol] | 1000 to 10000 nM | < 100 nM | – | –
COc1ccc(Cl)cc1-c1ccc2cnc(Nc3ccc(CN4CCN(C)CC4)cc3)nn12 [Example 354, [7-(5-Chloro-2-methoxy-phenyl)-pyrrolo[2,1-f][1,2,4]triazin-2-yl]-[4-(4-methyl-piperazin-1-ylmethyl)-phenyl]-amine] | < 100 nM | < 100 nM | – | –
CC(C)(C)NS(=O)(=O)c1cccc(-c2ccc3cnc(Nc4ccc(C5CCNCC5)cc4)nn23)c1 [Example 1059, N-tert-Butyl-3-[2-(4-piperidin-4-yl-phenylamino)-pyrrolo[2,1-f][1,2,4]triazin-7-yl]-benzenesulfonamide] | – | – | 100 to 1000 nM | < 100 nM
Cn1ncc2ccc(Nc3ncc4ccc(-c5cccc(S(=O)(=O)CC6CC6)c5)n4n3)cc21 [Example 1321, [7-(3-Cyclopropylmethanesulfonyl-phenyl)-pyrrolo[2,1-f][1,2,4]triazin-2-yl]-(1-methyl-1H-indazol-6-yl)-amine] | – | – | 1000 to 10000 nM | < 100 nM
CS(=O)(=O)c1ccc(-c2ccc3cnc(Nc4cccc(N5CCOCC5)c4)nn23)cc1 [Example 163, [7-(4-Methanesulfonyl-phenyl)-pyrrolo[2,1-f][1,2,4]triazin-2-yl]-(3-morpholin-4-yl-phenyl)-amine] | 1000 to 10000 nM | < 100 nM | – | –
CN(c1ccccc1-c1ccc2cnc(Nc3ccc4cn(CCN5CCOCC5)nc4c3)nn12)S(C)(=O)=O [Example 1342, N-Methyl-N-(2-{2-[2-(2-morpholin-4-yl-ethyl)-2H-indazol-6-ylamino]-pyrrolo[2,1-f][1,2,4]triazin-7-yl}-phenyl)-methanesulfonamide] | – | – | 100 to 1000 nM | < 100 nM
COc1ccccc1-c1ccc2cnc(Nc3ccc(C4CCN(C(=O)OC(C)(C)C)C4)cc3)nn12 (stereo not drawn) [Example 1008, 3-{4-[7-(2-Methoxy-phenyl)-pyrrolo[2,1-f][1,2,4]triazin-2-ylamino]-phenyl}-pyrrolidine-1-carboxylic acid tert-butyl ester] | – | – | 100 to 1000 nM | < 100 nM
Cn1ncc2cc(Nc3ncc4ccc(-c5cccc(S(=O)(=O)CC6CC6)c5)n4n3)ccc21 [Example 1322, [7-(3-Cyclopropylmethanesulfonyl-phenyl)-pyrrolo[2,1-f][1,2,4]triazin-2-yl]-(1-methyl-1H-indazol-5-yl)-amine] | – | – | 1000 to 10000 nM | < 100 nM
